Test results taken from PubChem BioAssay AID2060485 (Molecular Pharmacology Branch, DTP, NCI, 2025).

Tested on: A375 multi-cell spheroids with HUVEC/MSC, viability
Assay: Anticancer human tumor A375 cell line growth inhibition [GQUAD];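 note: spheroids exposed to compounds for seven days before readout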
Conditions: for IC50: curve of first compound; for viability, T/C: stronger effect = lower value
Outline: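 Multi-cell-type spheroids of tumor cells with HUVEC and mesenchymal stem cells, treated with drug combinations. Concentrations descend in half-log steps from near clinical Cmax, or from 10 microM where Cmax is unknown; viability read-out.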

[1] = second compound 0.0316 µM, first compound 0.0316 µM
[2] = second compound 0.0316 µM, first compound 0.1 µM
[3] = second compound 0.0316 µM, first compound 0.316 µM
[4] = second compound 0.0316 µM, first compound 1 µM
[5] = second compound 0.0316 µM, first compound 3.16 µM
[6] = second compound 0.0316 µM, first compound 10 µM
[7] = second compound 0.1 µM, first compound 0.0316 µM
[8] = second compound 0.1 µM, first compound 0.1 µM
[9] = second compound 0.1 µM, first compound 0.316 µM
[10] = second compound 0.1 µM, first compound 1 µM
[11] = second compound 0.1 µM, first compound 3.16 µM
[12] = second compound 0.1 µM, first compound 10 µM
[13] = second compound 0.316 µM, first compound 0.0316 µM
[14] = second compound 0.316 µM, first compound 0.1 µM
[15] = second compound 0.316 µM, first compound 0.316 µM
[16] = second compound 0.316 µM, first compound 1 µM
[17] = second compound 0.316 µM, first compound 3.16 µM
[18] = second compound 0.316 µM, first compound 10 µM
[19] = second compound 1 µM, first compound 0.0316 µM
[20] = second compound 1 µM, first compound 0.1 µM
[21] = second compound 1 µM, first compound 0.316 µM
[22] = second compound 1 µM, first compound 1 µM
[23] = second compound 1 µM, first compound 3.16 µM
[24] = second compound 1 µM, first compound 10 µM
[25] = second compound 3.16 µM, first compound 0.0316 µM
[26] = second compound 3.16 µM, first compound 0.1 µM
[27] = second compound 3.16 µM, first compound 0.316 µM
[28] = second compound 3.16 µM, first compound 1 µM
[29] = second compound 3.16 µM, first compound 3.16 µM
[30] = second compound 3.16 µM, first compound 10 µM
[31] = second compound 10 µM, first compound 0.0316 µM
[32] = second compound 10 µM, first compound 0.1 µM
[33] = second compound 10 µM, first compound 0.316 µM
[34] = second compound 10 µM, first compound 1 µM
[35] = second compound 10 µM, first compound 3.16 µM
[36] = second compound 10 µM, first compound 10 µM

C#Cc1c(F)ccc2cc(O)cc(-c3ncc4c(N5CC6CCC(C5)N6)nc(OCC56CCCN5CC(F)C6)nc4c3F)c12 (stereo not given) + Cc1cnc(CNC(=O)c2c(=O)c3ccc(N4CCCN(C)CC4)nc3n3c2sc2ccccc23)cn1
IC50 (second compound 0.0316 µM): > 10000 nM | IC50 (second compound 0.1 µM): > 10000 nM | IC50 (second compound 0.316 µM): > 10000 nM | IC50 (second compound 1 µM): < 31.6 nM | IC50 (second compound 3.16 µM): < 31.6 nM | IC50 (second compound 10 µM): < 31.6 nM | viability, T/C [1]: 106% | viability, T/C [2]: 109% | viability, T/C [3]: 121% | viability, T/C [4]: 120% | viability, T/C [5]: 117% | viability, T/C [6]: 117% | viability, T/C [7]: 79% | viability, T/C [8]: 74.6% | viability, T/C [9]: 93.8% | viability, T/C [10]: 85.1% | viability, T/C [11]: 88.3% | viability, T/C [12]: 96% | viability, T/C [13]: 59.1% | viability, T/C [14]: 51.8% | viability, T/C [15]: 64.3% | viability, T/C [16]: 55.1% | viability, T/C [17]: 58.6% | viability, T/C [18]: 47.9% | viability, T/C [19]: 42.6% | viability, T/C [20]: 42.6% | viability, T/C [21]: 39.4% | viability, T/C [22]: 40% | viability, T/C [23]: 37.4% | viability, T/C [24]: 38.8% | viability, T/C [25]: 40.6% | viability, T/C [26]: 36.9% | viability, T/C [27]: 36.6% | viability, T/C [28]: 34.7% | viability, T/C [29]: 36.3% | viability, T/C [30]: 33.7% | viability, T/C [31]: 25.7% | viability, T/C [32]: 28.3% | viability, T/C [33]: 33.2% | viability, T/C [34]: 34% | viability, T/C [35]: 33.2% | viability, T/C [36]: 32.3%

CC(=O)O[C@H]1C(=O)[C@@]2(C)[C@H]([C@H](OC(=O)c3ccccc3)[C@]3(O)C[C@H](OC(=O)[C@H](O)[C@@H](NC(=O)c4ccccc4)c4ccccc4)C(C)=C1C3(C)C)[C@]1(OC(C)=O)CO[C@@H]1C[C@@H]2O + Cc1cnc(CNC(=O)c2c(=O)c3ccc(N4CCCN(C)CC4)nc3n3c2sc2ccccc23)cn1
IC50 (second compound 0.0316 µM): 64.2 nM | IC50 (second compound 0.1 µM): 36.1 nM | IC50 (second compound 0.316 µM): < 31.6 nM | IC50 (second compound 1 µM): < 31.6 nM | IC50 (second compound 3.16 µM): < 31.6 nM | IC50 (second compound 10 µM): < 31.6 nM | viability, T/C [1]: 77.3% | viability, T/C [2]: 33% | viability, T/C [3]: 18.5% | viability, T/C [4]: 14.2% | viability, T/C [5]: 14.7% | viability, T/C [6]: 19% | viability, T/C [7]: 53.3% | viability, T/C [8]: 24.9% | viability, T/C [9]: 17.8% | viability, T/C [10]: 21.1% | viability, T/C [11]: 18.1% | viability, T/C [12]: 23.2% | viability, T/C [13]: 40.1% | viability, T/C [14]: 25.9% | viability, T/C [15]: 25.2% | viability, T/C [16]: 21.2% | viability, T/C [17]: 20.1% | viability, T/C [18]: 22.8% | viability, T/C [19]: 35% | viability, T/C [20]: 24.3% | viability, T/C [21]: 26.8% | viability, T/C [22]: 28.2% | viability, T/C [23]: 31% | viability, T/C [24]: 32.1% | viability, T/C [25]: 30.1% | viability, T/C [26]: 23.1% | viability, T/C [27]: 24.4% | viability, T/C [28]: 28.7% | viability, T/C [29]: 28.2% | viability, T/C [30]: 33.7% | viability, T/C [31]: 26.7% | viability, T/C [32]: 23.3% | viability, T/C [33]: 23.5% | viability, T/C [34]: 23.3% | viability, T/C [35]: 26% | viability, T/C [36]: 29.6%

CCCS(=O)(=O)Nc1ccc(F)c(C(=O)c2c[nH]c3ncc(-c4ccc(Cl)cc4)cc23)c1F + Cc1cnc(CNC(=O)c2c(=O)c3ccc(N4CCCN(C)CC4)nc3n3c2sc2ccccc23)cn1
IC50 (second compound 0.0316 µM): < 31.6 nM | IC50 (second compound 0.1 µM): < 31.6 nM | IC50 (second compound 0.316 µM): < 31.6 nM | IC50 (second compound 1 µM): < 31.6 nM | IC50 (second compound 3.16 µM): < 31.6 nM | IC50 (second compound 10 µM): < 31.6 nM | viability, T/C [1]: 34.1% | viability, T/C [2]: 16.2% | viability, T/C [3]: 9.28% | viability, T/C [4]: 8.24% | viability, T/C [5]: 5.87% | viability, T/C [6]: 7.01% | viability, T/C [7]: 27.9% | viability, T/C [8]: 14.7% | viability, T/C [9]: 10.1% | viability, T/C [10]: 6.6% | viability, T/C [11]: 5.83% | viability, T/C [12]: 5.93% | viability, T/C [13]: 23.5% | viability, T/C [14]: 14% | viability, T/C [15]: 7.97% | viability, T/C [16]: 6.65% | viability, T/C [17]: 5.74% | viability, T/C [18]: 3.51% | viability, T/C [19]: 21.8% | viability, T/C [20]: 13.2% | viability, T/C [21]: 8.1% | viability, T/C [22]: 6.44% | viability, T/C [23]: 6.08% | viability, T/C [24]: 2.62% | viability, T/C [25]: 16.2% | viability, T/C [26]: 11.3% | viability, T/C [27]: 8.15% | viability, T/C [28]: 7.91% | viability, T/C [29]: 6.35% | viability, T/C [30]: 0.08% | viability, T/C [31]: 16% | viability, T/C [32]: 13.5% | viability, T/C [33]: 8.99% | viability, T/C [34]: 7.73% | viability, T/C [35]: 6.2% | viability, T/C [36]: 0.13%

Nc1ccn(C2OC(CO)C(O)C2(F)F)c(=O)n1 (stereo not given) + Cc1cnc(CNC(=O)c2c(=O)c3ccc(N4CCCN(C)CC4)nc3n3c2sc2ccccc23)cn1
IC50 (second compound 0.0316 µM): < 31.6 nM | IC50 (second compound 0.1 µM): < 31.6 nM | IC50 (second compound 0.316 µM): < 31.6 nM | IC50 (second compound 1 µM): < 31.6 nM | IC50 (second compound 3.16 µM): < 31.6 nM | IC50 (second compound 10 µM): < 31.6 nM | viability, T/C [1]: 22.9% | viability, T/C [2]: 10.1% | viability, T/C [3]: 10.4% | viability, T/C [4]: 10.4% | viability, T/C [5]: 8.9% | viability, T/C [6]: 7.49% | viability, T/C [7]: 23.4% | viability, T/C [8]: 10.8% | viability, T/C [9]: 9.94% | viability, T/C [10]: 10.3% | viability, T/C [11]: 9.17% | viability, T/C [12]: 7.13% | viability, T/C [13]: 22.3% | viability, T/C [14]: 12.7% | viability, T/C [15]: 9.56% | viability, T/C [16]: 11.4% | viability, T/C [17]: 10% | viability, T/C [18]: 7.6% | viability, T/C [19]: 28.3% | viability, T/C [20]: 14.9% | viability, T/C [21]: 13.3% | viability, T/C [22]: 13.8% | viability, T/C [23]: 12.5% | viability, T/C [24]: 7.97% | viability, T/C [25]: 29% | viability, T/C [26]: 20.9% | viability, T/C [27]: 18.9% | viability, T/C [28]: 14.1% | viability, T/C [29]: 11.8% | viability, T/C [30]: 6.29% | viability, T/C [31]: 24.9% | viability, T/C [32]: 22.1% | viability, T/C [33]: 19.1% | viability, T/C [34]: 14.6% | viability, T/C [35]: 10.9% | viability, T/C [36]: 2.89%

O=c1[nH]cc(F)c(=O)[nH]1 + Cc1cnc(CNC(=O)c2c(=O)c3ccc(N4CCCN(C)CC4)nc3n3c2sc2ccccc23)cn1
IC50 (second compound 0.0316 µM): > 10000 nM | IC50 (second compound 0.1 µM): > 10000 nM | IC50 (second compound 0.316 µM): 675 nM | IC50 (second compound 1 µM): < 31.6 nM | IC50 (second compound 3.16 µM): < 31.6 nM | IC50 (second compound 10 µM): < 31.6 nM | viability, T/C [1]: 98.5% | viability, T/C [2]: 105% | viability, T/C [3]: 92.4% | viability, T/C [4]: 107% | viability, T/C [5]: 112% | viability, T/C [6]: 96.5% | viability, T/C [7]: 75.9% | viability, T/C [8]: 67.8% | viability, T/C [9]: 82.8% | viability, T/C [10]: 81.4% | viability, T/C [11]: 88.7% | viability, T/C [12]: 63.1% | viability, T/C [13]: 56.8% | viability, T/C [14]: 51.4% | viability, T/C [15]: 50.7% | viability, T/C [16]: 49.4% | viability, T/C [17]: 48.6% | viability, T/C [18]: 45.3% | viability, T/C [19]: 44.9% | viability, T/C [20]: 41.3% | viability, T/C [21]: 47.6% | viability, T/C [22]: 51.7% | viability, T/C [23]: 45.8% | viability, T/C [24]: 37.7% | viability, T/C [25]: 40.3% | viability, T/C [26]: 33.4% | viability, T/C [27]: 34.6% | viability, T/C [28]: 36% | viability, T/C [29]: 39% | viability, T/C [30]: 30.7% | viability, T/C [31]: 37.3% | viability, T/C [32]: 30% | viability, T/C [33]: 32.6% | viability, T/C [34]: 33.9% | viability, T/C [35]: 30.3% | viability, T/C [36]: 29.4%
